From patent publication US20150291593A1, “NOVEL HETEROARYL AND HETEROCYCLE COMPOUNDS, COMPOSITIONS AND METHODS” (HUTCHISON MEDIPHARMA LIMITED, priority 2012, published 2015)

What was measured:
Assay type in all cases: biochemical
p110δ/p85α = target: T1, p110δ/p85α (Homo sapiens, UniProt O00329); assay: Transcreener KINASE Assay, kinase inhibition of p110δ/p85α; conditions: for IC50: read-out: PI3Kδ IC50
T1 construct: purchased Invitrogen
Description: (§1) PI3K kinases including p110α/p85α, p110δ/p85α and p110γ are purchased from Invitrogen, and p110β/p85α is from Millipore.
(§2) Primary screening data and IC50 values are measured using Transcreener™ KINASE Assay (Bellbrook, Catalog #3003-10K). […] It is a universal, homogenous, high throughput screening (HTS) technology using a far-red, competitive fluorescence polarization immunoassay based on the detection of ADP to monitor the activity of enzymes that catalyze group transfer reactions. Briefly, the Transcreener KINASE Assay is designed as a simple two-part, endpoint assay.
(§3) In the first step, the 25 ul kinase reaction is performed by preparing a reaction mixture containing 5 ul test compound (2% DMSO final concentration), 10 ul kinase, buffer (50 mM HEPES, 100 mM NaCl, 1 mM EGTA, 0.03% CHAPS, 3 mM MgCl2, and freshly supplemented 1 mM DTT), and 10 ul 30 uM PIP2/10 uM ATP. The plate is sealed and incubated for 80 min at room temperature. Next, 25 ul ADP detection mix is added per well. The plate is sealed again and incubated for 60 min at room temperature, and then measure fluorescence polarization by Tecan Infinite F500 Reader.
(§4) Data is analyzed and IC50s are generated using the add-in software for Microsoft Excel, Xlfit™ (version 2.0). IH %=(ADP amount under 2% DMSO-ADP amount under test compound)/ADP amount under 2% DMSO.

p110γ = target: T2, p110γ (Homo sapiens, UniProt P48736); assay: Transcreener KINASE Assay, kinase inhibition of p110γ; conditions: for IC50: read-out: PI3Kγ IC50
T2 construct: purchased Invitrogen
Description: PI3K kinases including p110α/p85α, p110δ/p85α and p110γ are purchased from Invitrogen, and p110β/p85α is from Millipore. Primary screening data and IC50 values are measured using Transcreener™ KINASE Assay (Bellbrook, Catalog #3003-10K). […] It is a universal, homogenous, high throughput screening (HTS) technology using a far-red, competitive fluorescence polarization immunoassay based on the detection of ADP to monitor the activity of enzymes that catalyze group transfer reactions. Briefly, the Transcreener KINASE Assay is designed as a simple two-part, endpoint assay. […] The plate is sealed and incubated for 80 min at room temperature. Next, 25 ul ADP detection mix is added per well. The plate is sealed again and incubated for 60 min at room temperature, and then measure fluorescence polarization by Tecan Infinite F500 Reader. Data is analyzed and IC50s are generated using the add-in software for Microsoft Excel, Xlfit™ (version 2.0).

p110β/p85α = target: T3, p110β/p85α (Homo sapiens, UniProt P42338); assay: Transcreener KINASE Assay, kinase inhibition of p110β/p85α; conditions: for IC50: read-out: PI3Kβ IC50
T3 construct: purchased Millipore
Description: as §1, §2, §3, §4

T2 sequence (P48736 whole entry, species assumed): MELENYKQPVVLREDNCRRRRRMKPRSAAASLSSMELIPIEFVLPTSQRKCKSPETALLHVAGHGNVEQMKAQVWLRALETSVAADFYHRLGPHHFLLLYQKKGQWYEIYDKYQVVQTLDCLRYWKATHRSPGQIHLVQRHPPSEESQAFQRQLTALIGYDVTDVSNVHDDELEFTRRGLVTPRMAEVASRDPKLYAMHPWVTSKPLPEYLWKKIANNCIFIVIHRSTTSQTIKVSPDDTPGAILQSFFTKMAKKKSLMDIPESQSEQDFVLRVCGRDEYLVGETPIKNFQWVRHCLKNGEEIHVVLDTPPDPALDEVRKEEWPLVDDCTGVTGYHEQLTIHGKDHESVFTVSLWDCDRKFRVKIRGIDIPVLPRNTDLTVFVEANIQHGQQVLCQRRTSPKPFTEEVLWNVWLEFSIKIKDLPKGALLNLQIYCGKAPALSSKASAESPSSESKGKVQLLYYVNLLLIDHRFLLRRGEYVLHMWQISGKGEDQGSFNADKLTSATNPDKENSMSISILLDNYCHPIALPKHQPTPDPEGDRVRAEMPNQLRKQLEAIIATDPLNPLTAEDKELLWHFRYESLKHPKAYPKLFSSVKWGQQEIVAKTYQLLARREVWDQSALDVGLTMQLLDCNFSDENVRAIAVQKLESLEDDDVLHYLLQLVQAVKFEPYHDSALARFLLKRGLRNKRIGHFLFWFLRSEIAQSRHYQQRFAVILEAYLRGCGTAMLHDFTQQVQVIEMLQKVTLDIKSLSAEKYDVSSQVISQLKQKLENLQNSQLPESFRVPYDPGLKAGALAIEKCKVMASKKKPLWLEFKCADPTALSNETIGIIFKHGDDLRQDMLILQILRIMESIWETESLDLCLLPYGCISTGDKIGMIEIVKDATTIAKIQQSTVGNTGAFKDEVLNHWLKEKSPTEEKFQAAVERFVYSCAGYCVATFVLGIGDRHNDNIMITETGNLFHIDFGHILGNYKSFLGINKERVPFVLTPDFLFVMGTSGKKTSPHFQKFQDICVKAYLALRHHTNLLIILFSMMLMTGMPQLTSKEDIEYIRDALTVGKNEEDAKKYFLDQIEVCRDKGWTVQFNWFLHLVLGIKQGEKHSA
T1 sequence (O00329 whole entry, species assumed): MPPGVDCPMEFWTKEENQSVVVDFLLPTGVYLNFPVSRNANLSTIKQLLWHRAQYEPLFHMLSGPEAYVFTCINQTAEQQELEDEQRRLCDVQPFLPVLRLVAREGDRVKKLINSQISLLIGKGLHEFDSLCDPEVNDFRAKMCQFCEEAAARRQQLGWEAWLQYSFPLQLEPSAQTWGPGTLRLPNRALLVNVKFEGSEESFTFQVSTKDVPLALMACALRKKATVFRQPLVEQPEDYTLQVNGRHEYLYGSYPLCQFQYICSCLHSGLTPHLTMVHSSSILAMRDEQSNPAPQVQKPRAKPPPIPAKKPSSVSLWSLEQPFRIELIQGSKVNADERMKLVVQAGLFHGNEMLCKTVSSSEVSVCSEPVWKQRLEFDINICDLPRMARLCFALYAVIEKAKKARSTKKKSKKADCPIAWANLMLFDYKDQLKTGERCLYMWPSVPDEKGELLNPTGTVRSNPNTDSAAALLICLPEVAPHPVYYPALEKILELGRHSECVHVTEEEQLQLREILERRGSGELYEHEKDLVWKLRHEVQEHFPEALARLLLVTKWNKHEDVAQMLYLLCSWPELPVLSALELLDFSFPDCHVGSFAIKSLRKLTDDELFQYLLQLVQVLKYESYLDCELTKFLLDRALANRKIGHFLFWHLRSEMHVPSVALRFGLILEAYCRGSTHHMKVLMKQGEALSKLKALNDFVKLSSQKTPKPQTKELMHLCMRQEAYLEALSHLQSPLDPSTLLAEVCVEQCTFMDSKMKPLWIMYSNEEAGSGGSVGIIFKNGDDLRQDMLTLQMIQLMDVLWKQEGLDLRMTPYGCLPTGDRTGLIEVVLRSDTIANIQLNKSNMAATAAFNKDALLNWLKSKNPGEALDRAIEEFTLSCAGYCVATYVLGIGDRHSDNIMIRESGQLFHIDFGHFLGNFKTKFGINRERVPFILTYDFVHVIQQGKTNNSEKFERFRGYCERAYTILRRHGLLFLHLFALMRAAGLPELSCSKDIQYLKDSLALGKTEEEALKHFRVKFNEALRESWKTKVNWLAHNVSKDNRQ
T1 sequence (P27986 whole entry partner, species assumed): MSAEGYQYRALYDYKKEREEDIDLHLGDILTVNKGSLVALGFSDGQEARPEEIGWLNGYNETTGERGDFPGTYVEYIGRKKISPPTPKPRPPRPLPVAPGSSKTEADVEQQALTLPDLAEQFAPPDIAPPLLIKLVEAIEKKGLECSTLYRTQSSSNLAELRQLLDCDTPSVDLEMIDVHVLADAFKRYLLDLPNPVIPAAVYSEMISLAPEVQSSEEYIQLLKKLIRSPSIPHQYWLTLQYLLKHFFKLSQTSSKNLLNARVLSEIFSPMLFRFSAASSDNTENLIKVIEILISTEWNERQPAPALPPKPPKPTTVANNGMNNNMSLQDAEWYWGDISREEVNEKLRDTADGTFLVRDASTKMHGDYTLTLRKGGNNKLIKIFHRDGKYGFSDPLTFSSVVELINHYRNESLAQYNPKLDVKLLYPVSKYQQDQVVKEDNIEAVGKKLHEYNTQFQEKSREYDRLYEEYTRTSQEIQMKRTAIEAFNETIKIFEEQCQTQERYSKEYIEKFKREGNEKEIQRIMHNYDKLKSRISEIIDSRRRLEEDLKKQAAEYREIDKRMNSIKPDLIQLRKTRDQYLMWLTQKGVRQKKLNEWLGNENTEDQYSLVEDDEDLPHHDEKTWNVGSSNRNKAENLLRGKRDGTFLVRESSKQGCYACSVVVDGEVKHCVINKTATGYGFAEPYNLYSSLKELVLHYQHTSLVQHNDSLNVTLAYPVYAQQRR
T3 sequence (P42338 whole entry, species assumed): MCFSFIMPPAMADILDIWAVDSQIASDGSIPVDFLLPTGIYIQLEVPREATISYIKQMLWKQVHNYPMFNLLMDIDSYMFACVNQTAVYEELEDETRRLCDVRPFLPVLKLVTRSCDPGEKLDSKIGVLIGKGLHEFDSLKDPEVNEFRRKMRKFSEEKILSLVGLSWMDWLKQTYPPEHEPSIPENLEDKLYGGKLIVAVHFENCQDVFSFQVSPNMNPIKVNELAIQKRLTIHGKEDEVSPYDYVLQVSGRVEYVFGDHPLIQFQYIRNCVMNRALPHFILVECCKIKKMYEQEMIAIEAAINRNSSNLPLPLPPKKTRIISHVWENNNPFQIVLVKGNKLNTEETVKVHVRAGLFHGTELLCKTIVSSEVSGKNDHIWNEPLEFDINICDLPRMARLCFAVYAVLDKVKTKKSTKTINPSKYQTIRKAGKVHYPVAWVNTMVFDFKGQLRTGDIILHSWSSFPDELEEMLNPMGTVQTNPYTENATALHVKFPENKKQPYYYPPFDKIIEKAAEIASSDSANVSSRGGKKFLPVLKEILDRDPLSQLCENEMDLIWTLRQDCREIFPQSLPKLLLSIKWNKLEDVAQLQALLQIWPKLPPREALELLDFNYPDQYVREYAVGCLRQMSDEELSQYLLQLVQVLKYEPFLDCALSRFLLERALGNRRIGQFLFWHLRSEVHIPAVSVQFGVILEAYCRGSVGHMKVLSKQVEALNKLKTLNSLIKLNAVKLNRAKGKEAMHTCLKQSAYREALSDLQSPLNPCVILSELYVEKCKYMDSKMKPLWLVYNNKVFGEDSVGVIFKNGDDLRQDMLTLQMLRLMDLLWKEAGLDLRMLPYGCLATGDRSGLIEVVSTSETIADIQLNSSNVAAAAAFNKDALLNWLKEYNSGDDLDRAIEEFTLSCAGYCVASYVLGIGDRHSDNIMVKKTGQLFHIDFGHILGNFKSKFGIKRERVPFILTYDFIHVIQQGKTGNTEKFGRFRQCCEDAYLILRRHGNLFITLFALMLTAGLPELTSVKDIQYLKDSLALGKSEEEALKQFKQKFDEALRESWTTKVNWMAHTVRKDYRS
T3 sequence (P27986 whole entry partner, species assumed): as the sequence (P27986 whole entry partner, species assumed) above

Row | SMILES | IC50 (p110δ/p85α) [µM] | IC50 (p110γ) [µM] | further results
1 | Nc1ccc(-c2c[nH]c3ncnc(N4CC[C@H]4c4nn5ccc(F)c5c(=O)n4-c4ccccc4)c23)cn1 [Compound 183] | < 0.00046 |  | 
2 | O=c1c2cccn2nc([C@@H]2CCCN2c2ncnc3[nH]cc(-c4cn[nH]c4)c23)n1-c1ccccc1 [Compound 99] | 0.003 | 0.006 | PI3Kγ IH % @ 1 uM (p110γ): 94.2%; PI3Kδ IH % @ 1 uM (p110δ/p85α): >100%; PI3Kβ IH % @ 1 uM (p110β/p85α): 78.8%; IC50 (p110β/p85α): 0.147 µM
3 | Cc1ccn2nc([C@@H]3CCCN3c3ncnc4[nH]cc(C#N)c34)n(-c3ccccc3)c(=O)c12 [Compound 42] | ~0.001 |  | 
4 | CC(Nc1ncnc2[nH]cnc12)c1cn2ccc(Cl)c2c(=O)n1-c1ccc(F)cc1 (centres unmarked) [Compound 78] |  | 0.018 | IC50 (p110β/p85α): 0.026 µM
5 | C[S+]([O-])c1cnc(N)nc1N1CC[C@H]1c1nn2ccc(Cl)c2c(=O)n1-c1ccccc1 (some centres unmarked) [Compound 399] |  |  | PI3Kβ IH % @ 1 uM (p110β/p85α): 3.5%
6 | N#Cc1c[nH]c2ncnc(N3C[C@H](O)C[C@H]3c3nn4ccc(Cl)c4c(=O)n3-c3ccccc3)c12 [Compound 70, 4-((2S,4R)-2-(5-chloro-4-oxo-3-phenyl-3,4-dihydropyrrolo[1,2-f][1,2,4]triazin-2-yl)-4-hydroxypyrrolidin-1-yl)-7H-pyrrolo[2,3-d]pyrimidine-5-carbonitrile] |  |  | PI3Kγ IH % @ 1 uM (p110γ): >100%
7 | O=c1c2c(Cl)ccn2nc([C@@H]2CCCN2c2ncnc3[nH]ccc23)n1-c1ccccc1 [Compound 145] |  |  | PI3Kγ IH % @ 1 uM (p110γ): 100%
8 | N#Cc1c[nH]c2ncnc(N3C[C@@H](F)C[C@H]3c3nn4ccc(Cl)c4c(=O)n3Cc3ccccn3)c12 [Compound 158] |  |  | PI3Kγ IH % @ 1 uM (p110γ): 100%
9 | CC(Nc1ncnc(N)c1C#N)c1cn2ccc(Cl)c2c(=O)n1-c1ccc(F)cc1 (centres unmarked) [Compound 79] |  |  | PI3Kδ IH % @ 1 uM (p110δ/p85α): 99.0%; IC50 (p110β/p85α): 0.006 µM
10 | CC(Nc1ncnc2[nH]cnc12)c1cn2ccc(Cl)c2c(=O)n1-c1cc(F)cc(F)c1 (centres unmarked) [Compound 80] | 0.007 | 0.046 | PI3Kδ IH % @ 1 uM (p110δ/p85α): >100%
11 | COc1ccc(-c2c[nH]c3ncnc(N4CC[C@H]4c4nn5ccc(F)c5c(=O)n4-c4ccccc4)c23)cn1 [Compound 182] | < 0.00046 |  | 
12 | Nc1ncc(-c2c[nH]c3ncnc(N4CC[C@H]4c4nn5ccc(Cl)c5c(=O)n4-c4ccccc4)c23)cn1 [Compound 104] | < 0.0005 |  | 
13 | COc1ccc(-c2c(N)ncnc2N2CC[C@H]2c2nn3ccc(Cl)c3c(=O)n2-c2ccccc2)cn1 [Compound 108, (S)-2-(1-(6-amino-5-(6-methoxypyridin-3-yl)pyrimidin-4-yl)azetidin-2-yl)-5-chloro-3-phenylpyrrolo[1,2-f][1,2,4]triazin-4(3H)-one] | 0.097 | 0.199 | 
14 | O=c1c2c(Cl)ccn2nc([C@@H]2COCCN2c2ncnc3[nH]cnc23)n1-c1ccccc1 [Compound 153] | 0.011 | 0.165 | 
15 | COc1ncc(-c2c[nH]c3ncnc(N4CC[C@H]4c4nn5ccc(F)c5c(=O)n4-c4ccccc4)c23)cn1 [Compound 181] | < 0.00046 |  | 

Further lines, with some results ahead:

Row | IC50 (p110δ/p85α) [µM] | IC50 (p110γ) [µM] | SMILES | further results
16 | 0.035 |  | CC(Nc1ncnc2[nH]cc(F)c12)c1cc2ncc(Cl)n2c(=O)n1-c1ccccc1 (single isomer, unassigned) [Compound 451] | 
17 |  | 0.033 | C[S+]([O-])c1c[nH]c2ncnc(N3CCC[C@H]3c3nn4ccc(Cl)c4c(=O)n3-c3ccccc3)c12 (some centres unmarked) [Compound 187] | IC50 (p110β/p85α): 0.088 µM
18 | 0.04 | 0.025 | Nc1ncc([N+](=O)[O-])c(N2CC[C@H]2c2nn3ccc(Cl)c3c(=O)n2-c2ccccc2)n1 [Compound 282] | 
19 | 0.021 | 0.037 | CO/N=C(\C)c1c[nH]c2ncnc(N3CCC[C@H]3c3nn4ccc(Cl)c4c(=O)n3-c3ccccc3)c12 [Compound 308] | 
20 | < 0.001 |  | O=c1c2c(Cl)ccn2nc([C@@H]2C[C@H](O)CN2c2ncnc3[nH]cnc23)n1-c1ccccc1 [Compound 262] | 
21 | > 0.3 |  | CC(O)c1cnc(N)nc1N1CC[C@H]1c1nn2ccc(Cl)c2c(=O)n1-c1ccccc1 (stereo partly drawn) [Compound 357, 2-((2S)-1-(2-amino-5-(1-hydroxyethyl)pyrimidin-4-yl)azetidin-2-yl)-5-chloro-3-phenylpyrrolo[2,1-f][1,2,4]triazin-4(3H)-one] | 
